{"source": "patent US10723777B2", "about": "“Peptide having anti-obesity and anti-diabetes efficacy and use thereof” (CAREGEN CO., LTD., priority 2016, dated 2020)", "key": {"[1]": {"tested_on": "pre-adipocytes 3T3-L1 cells", "experiment": "Inhibition of fat accumulation using pre-adipocyte (Oil Red O staining)", "type": "cell-based, mouse", "conditions": "3T3-L1, differentiation induced 10 days, various concentrations", "protocol": "The pre-adipocytes 3T3-L1 cells were incubated until becoming confluent, and then incubated for two days after treatment with various concentrations of the peptides in a differentiation medium containing 10 μg/ml insulin, 0.1 μM dexamethasone, and 0.5 μM IBMX. Thereafter, the medium was exchanged every two days to a medium containing 10 μg/ml insulin. After differentiation was induced for 10 days, the generation of droplet in the cells was confirmed by Oil Red 0 staining.\nThe prepared 3T3-L1 pre-adipocytes were washed with PBS, fixed with 3.7% formalin for 1 hour, were washed with 60% isopropanol, and then were dyed with Oil Red O solution at room temperature for 20 minutes. After completion of dyeing, the Oil Red O solution was removed, the cells were washed three times with distilled water, and then the dyed cells were observed under a phase contrast microscope. For quantitative analysis, fats were extracted from the cells using 100% isopropanol, and the cells were transferred in an amount of 200 μl/well into 96-well plates and measured for optical density at 500 nm using an ELISA reader."}, "[2]": {"tested_on": "adipogenic markers (PPARγ, ACC, and aP2) in 3T3-L1 cells", "experiment": "Suppression of expression of genes involved in adipogenesis (RT-PCR)", "type": "cell-based, mouse", "conditions": "TNFα 100 ng/ml; for expression levels of the adipogenic marker aP2 (gene): peptides/peptide complexes 0.1, 1, 10 μg/ml", "protocol": "3T3-L1 cells (pre-adipocytes) were seeded at a density of 3×10^5 cells/well into 6-well plates. After incubating for 24 hours, the cells were incubated for 14 days in a 37° C. incubator after treatment with various concentrations (0.1, 1, and 10 μg/ml) of the peptides. Thereafter, the cells were harvested and treated with an RNA extraction solution (Easy Blue, Intron) to prepare for RNA from which cDNA was then synthesized using an RT premix (Intron). PCR was performed using primers for the adipogenic markers (PPARγ, ACC, and aP2), and a PCR premix (Intron). Next, the PCR products were each loaded in an amount of 5 μl into a 1% agarose gel and electrophoresis was performed, and then bands were identified in a Gel-Doc.\nTarget-specific primer sequences for PCR of adipogenic markers are as follows: […]"}, "[3]": {"tested_on": "DB/DB diabetes-induced mice", "experiment": "Blood sugar levels over time in DB/DB diabetes-induced mice administered with the peptides", "type": "in vivo, mouse", "conditions": "for blood sugar levels: High-Fat Diabetes DB/DB mice; for blood sugar levels (course over time): DB/DB mice", "protocol": "In addition, after starvation for 16 hours, DB/DB diabetes-induced mice were fed for 30 minutes and then administered with the peptides. Blood sugar levels were measured over times and the results are shown in FIGS. 22 and 23 and Tables 7 and 8."}, "[4]": {"tested_on": "DIO C57BL/6 mouse fed high-fat diet", "experiment": "Adipogenesis-suppressive and lipolysis-promotive effect in DIO (diets induced obesity) mice", "type": "in vivo", "protocol": "Obesity-induced Models DIO (diets induced obesity), which had become obese by feeding high-fat diets to normal C57BL/6 mouse, were used for the anti-obesity experiment in which 5 μg/ml of TNFα was used as a positive control drug. For a control, a general diet, not a high-fat diet, was fed. In this experiment, a high-fat diet was fed for 12 weeks, while the peptide complexes or the positive control drug were applied. During the experiment, the weight loss was confirmed.\nTNFα and the anti-obesity active compounds were intraperitoneally injected at 3:00 to 4:00 pm every week for 12 weeks. Body weights and dietary amounts were measured just before the first drug injection, and then measured at weekly intervals.\nBlood samples were collected from the tail vein after the end of the drug injection experiment, and then blood sugar levels were measured using Accu-Check Active (Roche) and cholesterol levels were analyzed using Cholesterol calculation Kit (BioVision).\nAdipose tissues are classified into white fat and brown fat depending on the color and are classified into subcutaneous fat, abdominal fat, mesentery fat (visceral fat), and epididymal fat depending on the site. After dissection, each fat was extracted. For histological examination, the fats were fixed with 10% neutral buffered formalin, embedded in paraffin blocks, cut into […] sections, and dyed with hematoxylin and eosin.\nTo analyze the degree of phosphorylation of the lipolytic factor HSL, fluorescent staining was carried out using an anti-pHSL antibody. The tissue samples were prepared, mounted on glycerine jell mounting media, and covered with a cover glass. The tissues were taken with a digital camera built into a microscope (Nikon, TS100) and images were observed under the microscope."}, "[5]": {"tested_on": "DIO C57BL/6 mouse fed high-fat diet", "experiment": "Adipogenesis-suppressive and lipolysis-promotive effect in DIO (diets induced obesity) mice", "type": "in vivo", "conditions": "micro-CT; HDF (10 weeks) + treatment (8 weeks)"}, "[6]": {"conditions": "peptide complexes 0.1, 1, 10 μg/ml"}}, "data": [{"substance": "ACYLPHPWFC (Peptide 4) [SEQ ID NO: 4]", "values": [{"measurement": "degree of fat accumulation in the cells (Oil Red O staining)", "setting": "[1]", "value": "decreased"}, {"measurement": "expression levels of the adipogenic marker aP2 (gene)", "setting": "[2]", "value": "decreased"}, {"measurement": "blood sugar levels", "setting": "[3]; 30 minutes", "value": 249, "unit": "mg/dL"}, {"measurement": "blood sugar levels", "setting": "[3]; 60 minutes", "value": 229, "unit": "mg/dL"}, {"measurement": "blood sugar levels", "setting": "[3]; 120 minutes", "value": 215, "unit": "mg/dL"}, {"measurement": "blood sugar levels", "setting": "[3]; 240 minutes", "value": 180, "unit": "mg/dL"}, {"measurement": "blood sugar levels", "setting": "[3]; 300 minutes", "value": 165, "unit": "mg/dL"}, {"measurement": "blood sugar levels (course over time)", "setting": "[3]", "value": "lowered in a time-dependent manner"}, {"measurement": "blood sugar levels", "setting": "[3]; Fasting", "value": 222, "unit": "mg/dL"}]}, {"substance": "KGACTGWMA (Peptide 2) [SEQ ID NO: 2]", "values": [{"measurement": "degree of fat accumulation in the cells (Oil Red O staining)", "setting": "[1]", "value": "decreased"}, {"measurement": "expression levels of the adipogenic marker aP2 (gene)", "setting": "[2]", "value": "decreased"}, {"measurement": "blood sugar levels", "setting": "[3]; 30 minutes", "value": 219, "unit": "mg/dL"}, {"measurement": "blood sugar levels", "setting": "[3]; 60 minutes", "value": 231, "unit": "mg/dL"}, {"measurement": "blood sugar levels", "setting": "[3]; 120 minutes", "value": 174, "unit": "mg/dL"}, {"measurement": "blood sugar levels", "setting": "[3]; 240 minutes", "value": 158, "unit": "mg/dL"}, {"measurement": "blood sugar levels", "setting": "[3]; 300 minutes", "value": 152, "unit": "mg/dL"}, {"measurement": "blood sugar levels (course over time)", "setting": "[3]", "value": "lowered in a time-dependent manner"}, {"measurement": "blood sugar levels", "setting": "[3]; Fasting", "value": 181, "unit": "mg/dL"}]}, {"substance": "TNFα", "values": [{"measurement": "expression levels of the adipogenic marker ACC (gene)", "setting": "[2]; [6]", "value": "decreased"}, {"measurement": "expression levels of the adipogenic marker PPARγ (gene)", "setting": "[2]; [6]", "value": "decreased"}, {"measurement": "expression levels of the adipogenic marker aP2 (gene)", "setting": "[2]", "value": "decreased"}, {"measurement": "body weight", "setting": "[4]; Week 0, high-fat diet", "value": 22.41, "unit": "g"}, {"measurement": "body weight in percentage", "setting": "[4]; Week 0, high-fat diet", "value": 100, "unit": "%"}, {"measurement": "body weight", "setting": "[4]; Week 1, high-fat diet", "value": 23.00, "unit": "g"}, {"measurement": "body weight in percentage", "setting": "[4]; Week 1, high-fat diet", "value": 102.6, "unit": "%"}, {"measurement": "body weight", "setting": "[4]; Week 2, high-fat diet", "value": 26.12, "unit": "g"}, {"measurement": "body weight in percentage", "setting": "[4]; Week 2, high-fat diet", "value": 116.6, "unit": "%"}, {"measurement": "body weight", "setting": "[4]; Week 3, high-fat diet", "value": 27.45, "unit": "g"}, {"measurement": "body weight in percentage", "setting": "[4]; Week 3, high-fat diet", "value": 122.5, "unit": "%"}, {"measurement": "body weight", "setting": "[4]; Week 4, high-fat diet", "value": 30.51, "unit": "g"}, {"measurement": "body weight in percentage", "setting": "[4]; Week 4, high-fat diet", "value": 136.1, "unit": "%"}, {"measurement": "body weight", "setting": "[4]; Week 5, high-fat diet", "value": 32.76, "unit": "g"}, {"measurement": "body weight in percentage", "setting": "[4]; Week 5, high-fat diet", "value": 146.2, "unit": "%"}, {"measurement": "body weight", "setting": "[4]; Week 6, high-fat diet", "value": 33.49, "unit": "g"}, {"measurement": "body weight in percentage", "setting": "[4]; Week 6, high-fat diet", "value": 149.4, "unit": "%"}, {"measurement": "body weight", "setting": "[4]; Week 7, high-fat diet", "value": 35.14, "unit": "g"}, {"measurement": "body weight in percentage", "setting": "[4]; Week 7, high-fat diet", "value": 156.8, "unit": "%"}, {"measurement": "body weight", "setting": "[4]; Week 8, high-fat diet", "value": 37.15, "unit": "g"}, {"measurement": "body weight in percentage", "setting": "[4]; Week 8, high-fat diet", "value": 165.8, "unit": "%"}, {"measurement": "body weight", "setting": "[4]; Week 9, high-fat diet", "value": 38.97, "unit": "g"}, {"measurement": "body weight in percentage", "setting": "[4]; Week 9, high-fat diet", "value": 173.9, "unit": "%"}, {"measurement": "body weight", "setting": "[4]; Week 10, high-fat diet", "value": 40.39, "unit": "g"}, {"measurement": "body weight in percentage", "setting": "[4]; Week 10, high-fat diet", "value": 180.2, "unit": "%"}, {"measurement": "body weight", "setting": "[4]; Week 11, high-fat diet", "value": 41.35, "unit": "g"}, {"measurement": "body weight in percentage", "setting": "[4]; Week 11, high-fat diet", "value": 184.5, "unit": "%"}, {"measurement": "body weight", "setting": "[4]; Week 12, high-fat diet", "value": 43.91, "unit": "g"}, {"measurement": "body weight in percentage", "setting": "[4]; Week 12, high-fat diet", "value": 195.9, "unit": "%"}, {"measurement": "Subcutaneous Fat", "setting": "[4]; micro-CT, HDF (10 weeks) + treatment (8 weeks)", "value": 1332.08, "unit": "mm^3"}, {"measurement": "Total Fat", "setting": "[5]", "value": 4165.80, "unit": "mm^3"}, {"measurement": "Total Volume", "setting": "[5]", "value": 8240.67, "unit": "mm^3"}, {"measurement": "Visceral Fat", "setting": "[5]", "value": 2833.72, "unit": "mm^3"}]}]}
